This passage reports IC50 results from patent US8304447B2, “2-acylaminopropoanol-type glucosylceramide synthase inhibitors” (Genzyme Corporation, priority 2007, dated 2012).

Bounds are passed on as bounds.

For one assay, the system named is GM3. Put plainly: GM3 Elisa assay. As to conditions: 48 h, Table 1; B16-FO cells, 2 days incubation; read-out: IC50_uM_Mean. Type of assay: cell-based. As for the experimental part: B16-FO cells from ATCC (American Tissue Culture Collection) were grown in DMEM media (ATCC) with 10% Fetal Bovine Serum (Hyclone) and Pen/Step/Glutamine (Biowhittaker). 4000 cells per well were plated on collagen coated plates (BD) and allowed to attach for 6 hours in an incubator (37 degrees, 5% CO2). After 6 hours the compounds and controls were added to the wells, the plates mixed and returned to the incubator for 2 days. Day of assay the cells were fixed for 20 minutes with 1% formaldehyde and then washed with Tris Buffered Saline (TBS) 3 times, 150 μl of TBS was left in the wells and 50 μl of goat serum (Invitrogen) was added, the plates mixed and incubated for 1 hour at room temperature. The plates were flicked and the cells incubated with the monoclonal Antibody to GM3 (NeuAc) (Cosmo) for 45 minutes as room temperature. The plates were then washed 3 times with TBS, leaving 150 μl of TBS in the wells and Peroxidase AffinPure F (ab′) 2 frag Gt Anti-mouse IgM, μ Chain Specific (Jackson Immuno Research) was added in 50 μl, the plates mixed and incubated for 45 minutes at room temperature. The plates were washed 3 times with TBS, flicked and blotted and 100 μl of Quantablu (Pierce) was added to the wells and incubated for 1 hour then read on a Fluorometer at Ex 325 and Em 420. The data was then analyzed using standard programs.
Regarding `O=C(NCc1ccc(F)cc1)N[C@H](CN1CCCC1)[C@H](O)c1ccc2c(c1)OCCO2` [Compound 17, 1-((1R,2R)-1-(2,3-dihydrobenzo[β][1,4]dioxin-6-yl)-1-hydroxy-3-(pyrrolidin-1-yl)propan-2-yl)-3-(4-fluorobenzyl)urea], the IC50 is not above 0.1 µM. As for `O=C(N[C@H](CN1CCCC1)[C@H](O)c1ccc2c(c1)OCCO2)c1cc2ccccc2s1` [Compound 5, N-((1R,2R)-1-(2,3-dihydrobenzo[β][1,4]dioxin-6-yl)-1-hydroxy-3-(pyrrolidin-1-yl)propan-2-yl)benzo[b]thiophene-2-carboxamide], the IC50 was 0.1 to 1 µM. `O=C(N[C@H](CN1CCCC1)[C@H](O)c1ccc2c(c1)OCCO2)c1ccc2sccc2c1` [Compound 19, N-((1R,2R)-1-(2,3-dihydrobenzo[β][1,4]dioxin-6-yl)-1-hydroxy-3-(pyrrolidin-1-yl)propan-2-yl)benzo[b]thiophene-5-carboxamide]: the IC50 lay in the range of 0.1 to 1 µM.

As for `COc1ccc(C(=O)CCC(=O)N[C@H](CN2CCCC2)[C@H](O)c2ccc3c(c2)OCCO3)cc1` [Compound 154, N-((1R,2R)-1-(2,3-dihydrobenzo[b][1,4]dioxin-6-yl)-1-hydroxy-3-(pyrrolidin-1-yl)propan-2-yl)-4-(4-methoxyphenyl)-4-oxobutanamide], the IC50 fell in the range of 0.1 to 1 µM. Still for that read-out and setting: as for `CC(C)Oc1ccc(C(=O)CCC(=O)N[C@H](CN2CCCC2)[C@@H](O)c2ccc3c(c2)OCCO3)cc1` [Compound 162, N-((1R,2R)-1-(2,3-dihydrobenzo[β][1,4]dioxin-6-yl)-1-hydroxy-3-(pyrrolidin-1-yl)propan-2-yl)-4-(4-isopropoxyphenyl)-4-oxobutanamide], the figure is not above 0.1 µM; as for `COc1ccc(CCC(=O)N[C@H](CN2CCCC2)[C@H](O)c2ccc3c(c2)OCCO3)cc1Cl` [Compound 92, 3-(3-chloro-4-methoxyphenyl)-N-((1R,2R)-1-(2,3-dihydrobenzo[β][1,4]dioxin-6-yl)-1-hydroxy-3-(pyrrolidin-1-yl)propan-2-yl)propanamide], not above 0.1 µM; as for `COc1ccc(OCCC(=O)N[C@H](CN2CCCC2)[C@H](O)c2ccc3c(c2)OCCO3)cc1` [Compound 61, N-((1R,2R)-1-(2,3-dihydrobenzo[β][1,4]dioxin-6-yl)-1-hydroxy-3-(pyrrolidin-1-yl)propan-2-yl)-3-(4-methoxyphenoxy)propanamide], not above 0.1 µM.

Still in this assay, the particulars now being: 48 h, Table 2; B16-FO cells, 2 days incubation; read-out: IC50_uM_Mean.
Consider `O=C(N[C@H](CN1CCCC1)[C@H](OC(=O)c1ccc(-c2ccccn2)s1)c1ccc2c(c1)OCCO2)c1ccc(-c2ccccn2)s1` [Compound 242], for which the IC50 lay in the range of 3 to 10 µM.

As for `O=C(CCCc1nc(-c2ccc(Cl)cc2)no1)N[C@H](CN1CCCC1)[C@H](OC(=O)CCCc1nc(-c2ccc(Cl)cc2)no1)c1ccc2c(c1)OCCO2` [Compound 253], the IC50 lay in the range of 0.1 to 1 µM. On the same count and under the same terms, as for `CCCCCCCC(=O)N[C@H](CN1CCCC1)[C@H](O)c1ccc(OC)cc1` [Compound 320, Octanoic acid [2-hydroxy-2(4-methoxy-phenyl)-1-Pyrrolidin1-ylmethyl-ethyl]-amide], the figure is not above 0.1 µM. Same read-out and setting: as for `COc1ccc(C(=O)CCCC(=O)N[C@H](CN2CCCC2)[C@H](O)c2ccc3c(c2)OCCO3)cc1OC` [Compound 282, N-((1R,2R)-1-(2,3-dihydrobenzo[β][1,4]dioxin-6-yl)-1-hydroxy-3-(pyrrolidin-1-yl)propan-2-yl)-5-(3,4-dimethoxyphenyl)-5-oxopentanamide], the figure is 1 to 3 µM; as for `COc1ccc(OCCC(=O)N[C@H](CN2CCCC2)[C@H](O)c2ccc(OC)cc2)cc1` [Compound 262, N-[2-Hydroxy-2-(4-methoxy-phenyl)-1-pyrrolidin-1-ylmethyl-ethyl]-3-(4-methoxy-phenoxy)-propionamide], not above 0.1 µM; as for `COc1ccc(OCCC(=O)N[C@H](CN2CCCC2)[C@H](O)c2ccc(OC)c(OC)c2)cc1` [Compound 274], 1 to 3 µM. Same read-out and setting: in the case of `CC(C)Oc1ccc(C(=O)CCCC(=O)N[C@H](CN2CCCC2)[C@H](O)c2ccc3c(c2)OCO3)cc1` [Compound 265, N-((1R,2R)-1-(benzo[ε][1,3]-dioxol-5-yl)-1-hydroxy-3-(pyrrolidin-1-yl)propan-2-yl)-5-(4-isopropoxyphenyl)-5-oxopentanamide (2S,3S)-2,3-dihydroxysuccinate] it was not above 0.1 µM; in that of `COC(=O)CO[C@H](c1ccc2c(c1)OCCO2)[C@@H](CN1CCCC1)NC(=O)CCOc1ccc(OC)cc1` [Compound 275], not above 0.1 µM.

The assay is the same for the next values; noted with them: Table 3 (IC 50 Values); B16-FO cells; read-out: IC50_uM_Mean.
Consider `COc1ccc(C(=O)CCCCCC(=O)N[C@H](CN2CCCC2(C)C)[C@H](O)c2ccc3c(c2)OCCO3)cc1` [Compound 552], for which the IC50 is 1 to 3 µM. `CCCCCCCC(=O)N[C@H](Cc1ncc[nH]1)[C@H](O)c1ccc2c(c1)OCCO2` [Compound 563]: the IC50 was 3 to 10 µM. For the compound `COc1ccc([C@@H](O)[C@@H](CN2CCCC2)NC(=O)Cc2ccc(OC(F)(F)F)cc2)cc1Cl` [Compound 710], the IC50 was not above 0.1 µM. Same read-out and setting: as for `COc1ccc(C(=O)CCCC(=O)N[C@H](CN2CCCC2)[C@H](O)c2ccc(C)c(F)c2)cc1` [Compound 346], the figure is 0.1 to 1 µM.

Consider `CCCCCCOc1ccc([C@@H](O)[C@@H](CN2C3CCC2CC3)NC(=O)CCCCCC(=O)c2ccc(OC)cc2)cc1` [Compound 374], for which the IC50 is not above 0.1 µM.

As for `COc1ccc(C(=O)CCCC(=O)N[C@H](CN2CCCC2)[C@H](O)c2ccc(Cl)cc2)cc1` [Compound 383], the IC50 lay within 0.1 to 1 µM.

As for `CCCCCCOc1ccc([C@@H](O)[C@@H](CN2CC[C@@H](F)C2)NC(=O)CCCCCC(=O)c2ccc(OC)cc2)cc1` [Compound 371], the IC50 is not above 0.1 µM. For `COc1ccc(OCCC(=O)N[C@H](CN2CCC(C)CC2)[C@H](O)c2ccc3c(c2)OCCO3)cc1` [Compound 610], the IC50 was in the range of 3 to 10 µM.

For the compound `CC(C)Oc1ccc([C@@H](O)[C@@H](CN2CC[C@@H](F)C2)NC(=O)Cc2ccc(-c3ccc(Cl)cc3)cc2)cc1` [Compound 446], the IC50 was not above 0.1 µM. Turning to `CCCCCCCC(=O)N[C@H](CCN1CCOCC1)[C@H](O)c1ccc2c(c1)OCCO2` [Compound 686], the IC50 lay in the range of 3 to 10 µM. Still for that read-out and setting: in the case of `COc1ccc(C(=O)CCCCC(=O)N[C@H](CN2CCCC2)[C@H](O)c2ccc(OCCOc3cccc(C(F)(F)F)c3)cc2)cc1` [Compound 365] it was not above 0.1 µM; in that of `COC[C@H]1CCCN1C[C@@H](NC(=O)CCCCCC(=O)c1ccc(OC)cc1)[C@H](O)c1ccc2c(c1)OCCO2` [Compound 539], 3 to 10 µM; in that of `CCCCCCCC(=O)N[C@H](CN1CCCC1(C)C)[C@H](O)c1ccc2c(c1)OCCO2` [Compound 553], 3 to 10 µM. As to `CCCCNC[C@@H](NC(=O)CCCCCC(=O)c1ccc(OC)cc1)C(O)c1ccc2c(c1)OCCO2` (stereo partly drawn) [Compound 462], the IC50 was 1 to 3 µM.

Turning to `CCCCCCCCCCCCCCCC(=O)N[C@H](CN(C)C1CCCC1)[C@@H](O)c1ccc2c(c1)OCCO2` [Compound 685], the IC50 fell in the range of 3 to 10 µM. In the case of `CCCCCCCC(=O)N[C@H](CN1CCC[C@@H]1C(F)(F)F)[C@H](O)c1ccc2c(c1)OCCO2` [Compound 546], the IC50 was in the range of 3 to 10 µM. In the case of `COc1ccc(C(=O)CCCC(=O)N[C@H](CN2CCCC2)[C@H](O)c2ccc3c(c2)OC(F)(F)O3)cc1` [Compound 405], the IC50 is 1 to 3 µM.

In the case of `O=C(N[C@H](CN1CCCC1)[C@H](O)c1ccc2c(c1)OCCO2)C(CCc1ccc(F)cc1)C(F)(F)F` (stereo partly drawn) [Compound 615], the IC50 was in the range of 0.1 to 1 µM. Regarding `CCCCCCCC(=O)N[C@H](CN1CCCC1)[C@H](O)c1ccc(OC)c(F)c1` [Compound 340], the IC50 lay in the range of 0.1 to 1 µM. For the compound `COc1ccc(OCCC(=O)N[C@H](CN2CCCC2)[C@H](O)c2ccc3c(c2)OC(F)(F)C(F)(F)O3)cc1` [Compound 402], the IC50 fell in the range of 3 to 10 µM. Same read-out and setting: as for `O=C(CCCOc1ccc(F)cc1)N[C@H](CN1CC[C@H](O)C1)[C@H](O)c1ccc2c(c1)OCCO2` [Compound 656], the figure is not above 0.1 µM.

As to `O=C(NCc1ccc(Cl)cc1)N[C@H](CN1CC[C@@H](F)C1)[C@H](O)c1ccc(OCCCCF)cc1` [Compound 735], the IC50 was not above 0.1 µM. Take `COCCOc1ccc(C(=O)CCCCC(=O)N[C@H](CN2CCCC2)[C@H](O)c2ccc(OC(C)C)cc2)cc1` [Compound 453]: the IC50 was not above 0.1 µM. On to `COc1ccc(OCCC(=O)N[C@H](CN2CCCC2)[C@H](O)c2ccc(OCCOc3ccc(Cl)cc3)cc2)cc1` [Compound 723], for which the IC50 was not above 0.1 µM.

With `Cc1ccc(OCCC(=O)N[C@H](CN2CC[C@H](O)C2)[C@H](O)c2ccc(OCCCCF)cc2)cc1` [Compound 496], the IC50 was not above 0.1 µM. `O=C(CCOc1ccnc2ccccc12)N[C@H](CN1CCCC1)[C@H](O)c1ccc2c(c1)OCCO2` [Compound 692]: the IC50 is 0.1 to 1 µM. The same measure, in the same setting: as for `CCCCCCCC(=O)N[C@H](CN1CC[C@@H](O)C1)[C@H](O)c1ccc2c(c1)OCCO2` [Compound 512], the figure is 1 to 3 µM; as for `CC(O)(CCCCCC(=O)N[C@H](CN1CCCC1)[C@H](O)c1ccc2c(c1)OCCO2)C1CC1` (stereo partly drawn) [Compound 629], 0.1 to 1 µM. Same read-out and setting: in the case of `COc1ccc([C@@H](O)[C@@H](CN2CCCC2)NC(=O)Cc2ccc(OC(F)(F)F)cc2)cc1C` [Compound 389] it was not above 0.1 µM; in that of `O=C(Cc1ccc(OC(F)(F)F)cc1)N[C@H](CN1CCCC1)[C@H](O)c1ccc(C(F)(F)F)cc1` [Compound 487], 3 to 10 µM.
